{"source": "patent US20250122456A1", "about": "“MICRO-PHY[…] FOR IMMUNE RESPONSE MODELING” (priority 2023, published 2025)", "test_system": "gut-liver interaction with immune cells", "experiment": "donor-matched gut-liver interaction with immune cells challenged with Poly:IC", "format": "cell-based, human", "conditions": "intestinal challenge, mimicking viral infection, FIG. 12", "description": "A single-cell RNA sequencing characterization of 3 donor-matched blood, gut and liver tissue is shown at 1202. On top, T cell clustering per tissue is shown, including PBMCS (PB), liver (L), and gut lamina propria (LP) and intraepithelial space (IEL). On the bottom, a distribution of major T cell subtypes per tissue is shown including CD4 T cells, CD8 T cells, and gamma-delta T cells. […] The interacting system was challenged with Poly:IC mimicking viral infection. […] On the bottom, liver albumin production data compare the three conditions."}
{"substance": "Poly: IC", "values": [{"measurement": "inflammatory cytokines detected in common media", "value": "significant induction"}]}
